Data as given in US12415810B2, “2'-isopropyl-spiro (3,3'-pyrrolidine oxindole) liver X receptor regulator, preparation method therefor, and use thereof” (SHENZHEN CELL INSPIRE PHARMACEUTICAL DEVELOPMENT CO., LTD., priority 2019, dated 2025).
Where two headings read alike, the source gives them in different places. Blank lines part the entries; values can stand above or below the compound they belong to.

Tests used:
LXRβ = target: T1, LXRβ (Homo sapiens, UniProt P55055); assay: Liver X receptor activity test, dual-luciferase reporter gene in HEK293T cells (pSG5/hLXRβ + hRXRα); format: cell-based
T1 construct: expressed in transfected cells; host or cells: HEK293T
T1 sequence (P55055 1-460): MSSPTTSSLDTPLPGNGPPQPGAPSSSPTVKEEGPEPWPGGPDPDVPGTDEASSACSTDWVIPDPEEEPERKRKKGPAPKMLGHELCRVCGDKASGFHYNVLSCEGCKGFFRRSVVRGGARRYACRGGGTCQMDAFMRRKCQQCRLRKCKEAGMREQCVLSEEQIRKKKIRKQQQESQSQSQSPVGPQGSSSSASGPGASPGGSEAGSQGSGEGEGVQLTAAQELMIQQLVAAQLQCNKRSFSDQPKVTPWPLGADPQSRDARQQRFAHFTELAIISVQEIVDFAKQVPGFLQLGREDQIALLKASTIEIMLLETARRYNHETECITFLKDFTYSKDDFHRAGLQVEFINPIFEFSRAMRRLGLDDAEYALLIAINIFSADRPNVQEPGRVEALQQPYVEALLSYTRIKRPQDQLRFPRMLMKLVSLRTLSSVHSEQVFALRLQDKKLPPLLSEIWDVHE
T1 sequence (P19793 1-462 partner): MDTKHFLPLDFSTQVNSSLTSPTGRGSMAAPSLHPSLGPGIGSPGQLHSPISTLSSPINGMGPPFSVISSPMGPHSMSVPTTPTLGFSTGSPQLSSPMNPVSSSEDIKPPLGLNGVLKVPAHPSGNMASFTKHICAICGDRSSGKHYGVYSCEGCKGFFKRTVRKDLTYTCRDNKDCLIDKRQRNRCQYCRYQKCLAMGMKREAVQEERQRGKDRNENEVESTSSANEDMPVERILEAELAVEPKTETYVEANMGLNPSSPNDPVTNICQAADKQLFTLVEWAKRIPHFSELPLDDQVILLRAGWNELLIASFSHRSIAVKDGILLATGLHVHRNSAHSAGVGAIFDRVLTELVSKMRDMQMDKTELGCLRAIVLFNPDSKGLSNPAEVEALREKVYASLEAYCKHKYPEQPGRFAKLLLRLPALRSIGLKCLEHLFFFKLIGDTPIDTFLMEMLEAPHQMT
Procedure: (§1) (1) Cell culture: human embryonic kidney cells (HEK293T cells) were cultured in DMEM (high glucose) medium containing 10% fetal bovine serum and 1% penicillin-streptomycin under conditions of 37° C. and 5% CO2.
(§2) (2) Transfection: HEK293T cells were seeded in a 96-well plate with a cell density of 2×10^4 cells/well. After 24 hours, the cells were transfected according to instructions of Lipofectamine™ 3000 reagent. The specific steps of transfection were as follows: • (1) adding 15 μL of L3000 reagent to 500 μL of DMEM (high sugar) medium, and vortex oscillating for 2 seconds; • (2) mixing 6.5 μg of pGL3/(DR-4)-c-fos-FF-luc plasmid, 0.13 μg of pCMV/Renilla-luc plasmid, 1.3 μg of pSG5/hLXRα (or pSG5/hLXRβ plasmid), 1.3 μg of pSG5/hRXRα plasmid, and 19 μL of P3000 reagent in 500 μL of DMEM (high sugar) medium; • (3) adding the plasmid mixture to a liposome mixture and standing by at room temperature for 20 minutes; and • (4) adding 10 μL of liposome-DNA solution to each well of the 96-well plate, and gently shaking the 96-well plate to mix well.
(§3) (3) Drug intervention: after 5 hours of transfection, the compounds to be tested were added, and the plate was placed in an incubator to continue culturing for 20 hours.
(§4) (4) Detection: dual-luciferase reporter gene system was used for detection. The specific steps of detection were as follows: • (1) aspirating the original medium in the 96-well plate, adding cell lysate to the 96-well plate at 20 μL/well, and quickly shaking the plate at room temperature for 20 minutes; • (2) adding samples to a 384-well plate at 20 μL/well; • (3) adding firefly luciferase substrate to each well at 10 μL/well, and measuring chemiluminescence after 7 seconds; and • (4) adding Renilla luciferase substrate to the same sample well at 100 μL/well, and measuring chemiluminescence after 7 seconds.
(§5) Result processing: the results were analyzed using Renilla luciferase activity to correct the firefly luciferase activity.

LXRα = target: T2, LXRα (Homo sapiens, UniProt Q13133); assay: Liver X receptor activity test, dual-luciferase reporter gene in HEK293T cells (pSG5/hLXRα + hRXRα); format: cell-based; conditions: for EC50 / LXRα % Agonist effect: agonist activity
T2 construct: expressed in transfected cells; host or cells: HEK293T
T2 sequence (Q13133 1-447): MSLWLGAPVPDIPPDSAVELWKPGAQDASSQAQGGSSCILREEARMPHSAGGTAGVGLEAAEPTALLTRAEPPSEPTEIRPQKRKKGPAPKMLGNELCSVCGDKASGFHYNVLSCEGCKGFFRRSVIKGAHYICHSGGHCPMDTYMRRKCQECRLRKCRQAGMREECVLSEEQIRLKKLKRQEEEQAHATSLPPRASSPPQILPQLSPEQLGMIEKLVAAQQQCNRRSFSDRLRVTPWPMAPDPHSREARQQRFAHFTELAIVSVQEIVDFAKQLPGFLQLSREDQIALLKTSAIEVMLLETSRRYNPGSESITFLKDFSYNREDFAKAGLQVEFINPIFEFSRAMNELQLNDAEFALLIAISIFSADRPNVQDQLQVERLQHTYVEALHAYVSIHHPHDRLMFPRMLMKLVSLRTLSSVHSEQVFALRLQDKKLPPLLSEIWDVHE
T2 sequence (P19793 1-462 partner): T1 sequence (P19793 1-462 partner)
Procedure: as §1, §2, §3, §4, §5

liver X receptors = assay: Liver X receptor activity test, (subtype not named); format: cell-based, human; conditions: for inverse activation of liver X receptors (in words): summary of Table 1; for activation of liver X receptors (in words): summary of Table 2
Procedure: as §1, §2, §3, §4, §5

[1] = system: SREBP-1c, ACC, FAS and SCD-1; assay: mRNA content of LXR downstream genes by qPCR in 3T3-L1 cells; format: cell-based, mouse; conditions: day 6 of differentiation
Procedure: (§6) HepG2 cells were seeded in a 6-well plate with a cell density of 8×10^5 cells/well and incubated for 24 hours. The compounds to be tested were added and acted for 24 hours, and then the cells were harvested. The 3T3-L1 cells were harvested on day 6 of differentiation. The cells were washed twice with PBS, total RNA was extracted with RNAiso plus reagent, 1 μg of total RNA was reverse transcribed into cDNA using ReverTra Ace qPCR RT Master Mix, and PCR amplification was performed using SYBR Green Realtime PCR Master Mix.

HepG2 cells = assay: Triglyceride test in HepG2 cells induced by high glucose; format: cell-based, human; conditions: concentration of 10 μM, 24 hours
Procedure: (2) HepG2 cells were seeded in a 12-well plate, cultured with DMEM (low sugar) medium and starved for 12 hours. When the cells grow to a density of 70%, the medium was changed to DMEM (high sugar) medium and the compound was added to act for 24 hours.

3T3-L1 cells = assay: cells; conditions: Mus musculus, 3T3-L1, 144 h, read-out: IC50 for lowering the triglyceride level in 3T3-L1 cells
Procedure: (1) Cell culture: human liver cancer cells (HepG2 cells) and mouse pre-adipocytes (3T3L1 cells) were cultured in DMEM (high glucose) medium containing 10% fetal bovine serum and 1% penicillin-streptomycin under conditions of 37° C. and 5% CO2.
(3) The steps of differentiation preadipocytes 3T3-L1 were as follows:
Cells were seeded in a 48-well plate, cultured in complete medium until the cells were completely in contact (day 0), and the medium was changed to a differentiation medium I (complete medium supplemented with 2 μg/mL of insulin, 100 ng/mL of dexamethasone, 0.5 mM of 3-isobutyl-1-methylxanthine, and 10 ng/mL of biotin) to culture for 3 days. The blank control group was still continued being cultured with the complete medium. On day 3, the medium was changed to a differentiation medium II (complete medium supplemented with 2 μg/mL of insulin) and culturing was continued for 3 days. On day 6, the cells were harvested for subsequent analysis.
(4) Triglyceride test: the treated cells were harvested, washed twice with icy PBS (0.2 M NaCl, 10 mM Na2HPO4, 3 mM KCl, 2 mM KH2PO4, pH 7.4), breaking the cells with ultrasonic waves, and detecting absorbance at 510 nm using the triglyceride detection kit (Nanjing Jiancheng Bioengineering Institute).

[2] = system: SREBP-1c, ACC, FAS and SCD-1; assay: mRNA content of LXR downstream genes by qPCR in HepG2 cells; format: cell-based, human; conditions: 24 hours
Procedure: as §6

[3] = system: Triton WR-1339-induced hyperlipidemia mice; assay: Lipid-lowering activity in Triton WR-1339-induced hyperlipidemia mice; format: in vivo, C57BL/6J mice; conditions: 100 mg/kg intragastric for 8 days
Procedure: 6-week-old SPF female C57BL/6J mice were purchased from the Experimental Animal Center of Sun Yat-sen University. The mice were randomly divided into 4 groups each including 6 mice, i.e., a normal control group, model a group, a fenofibrate group (100 mg/kg), and a B1 group (100 mg/kg), and intragastric administration was performed for 8 days. 24 hours before the last administration, the normal control group was intramuscularly injected with saline, and the remaining groups were injected with Triton WR-1339 (1500 mg/kg). One hour after the last administration, the eyeballs were removed to collect blood, the mice were executed by cervical dislocation, and the livers were collected. The plasma was allowed to stand for 1 hour, and the supernatant was collected by centrifugation at 4° C. and 3000 rpm. 100 mg of liver was weighed, added with methanol in 3 times the volume of the weighed liver, and homogenized thoroughly. Chloroform was then added in 6 times the volume and vortex oscillated. After centrifuging at 3000 rpm for 10 minutes, the lower chloroform layer was collected, and evaporated naturally overnight in a fume hood. 150 μL of 1% Triton ethanol was added and heated at 65° C. to be fully dissolved. Finally, triglycerides (TG), total cholesterol (TC), low-density lipoprotein cholesterol (LDL-C), and high-density lipoprotein cholesterol (HDL-C) in serum and liver samples were detected.

[4] = agonist activity, HEK293T reporter gene
[5] = inverse agonist activity, HEK293T reporter gene

LXRβ % Agonist effect (LXRβ): 100% | EC50 (LXRβ; [4]): 210 nM | EC50 (LXRα): 360 nM | LXRα % Agonist effect (LXRα): 100%
SMILES: O=C(O)Cc1cccc(OCCCN(Cc2cccc(C(F)(F)F)c2Cl)CC(c2ccccc2)c2ccccc2)c1 [GW3965, reference compound]

inverse activation of liver X receptors (in words) (liver X receptors): can inversely activate liver X receptors
SMILES: CC(C)[C@@H]1N(C(=O)CC(C)(C)C)CC[C@@]12C(=O)N(c1cccc(-c3ccc(CO)c(S(C)(=O)=O)c3)c1)c1ccccc12 [Compound 2c]

SMILES: CC(C)[C@H]1N(C(=O)OC(C)(C)C)CC[C@]12C(=O)N(c1cccc(-c3ccc(CO)c(S(C)(=O)=O)c3)c1)c1ccccc12 [Compound 2a-1]
inverse activation of liver X receptors (in words) (liver X receptors): can inversely activate liver X receptors | mRNA content of ACC [1]: reduced the mRNA content of SREBP-1c, ACC, FAS and SCD-1 in a concentration-dependent manner | mRNA content of FAS [1]: reduced the mRNA content of SREBP-1c, ACC, FAS and SCD-1 in a concentration-dependent manner | mRNA content of SCD-1 [1]: reduced the mRNA content of SREBP-1c, ACC, FAS and SCD-1 in a concentration-dependent manner | mRNA content of SREBP-1c [1]: reduced the mRNA content of SREBP-1c, ACC, FAS and SCD-1 in a concentration-dependent manner | triglyceride accumulation in HepG2 cells induced by high glucose (HepG2 cells): significantly reduce | IC50 (3T3-L1 cells): 270 ± 30 nM | mRNA content of ACC [2]: significantly reduced | mRNA content of FAS [2]: significantly reduced | mRNA content of SCD-1 [2]: significantly reduced | mRNA content of SREBP-1c [2]: significantly reduced | triglyceride content in the livers of mice ([3]; liver): can reduce the triglyceride content | HDL-C/LDL-C level ([3]; serum): slightly increased | HDL-C/TC ([3]; serum): Neither fenofibrate nor compound 2a-1 had a significant effect | increase in HDL-C level induced by Triton WR-1339 ([3]; serum): significantly inhibit | increase in LDL-C level induced by Triton WR-1339 ([3]; serum): significantly inhibit | increase in TC level induced by Triton WR-1339 ([3]; serum): significantly inhibit | increase in TG level induced by Triton WR-1339 ([3]; serum): significantly inhibit

activation of liver X receptors (in words) (liver X receptors): can activate liver X receptors | EC50 (LXRβ; [4]): 3040 nM | LXRβ % Agonist effect (LXRβ; [4]): 50% | EC50 (LXRα): 3670 nM | LXRα % Agonist effect (LXRα): 76%
SMILES: CC(C)[C@@H]1N(C(=O)C(C)(C)C)CC[C@@]12C(=O)N(c1cccc(-c3ccc(C(=O)N(C)C)c(Cl)c3)c1)c1ccccc12 [Compound 3b]

SMILES: CCOC(=O)c1ccc(CN(Cc2ccc(-c3cccc(S(C)(=O)=O)c3)cc2)S(=O)(=O)c2c(C)cc(C)cc2C)o1 [SR9238, reference compound]
IC50 (LXRβ; [5]): 100 nM | IC50 (LXRα; inverse agonist activity): 160 nM | LXRα % Inverse agonist effect (LXRα; inverse agonist activity): 93%

inverse activation of liver X receptors (in words) (liver X receptors): can inversely activate liver X receptors
SMILES: CC(C)[C@@H]1N(C(=O)OC(C)(C)C)CC[C@@]12C(=O)N(c1cccc(-c3ccc(CO)c(S(C)(=O)=O)c3)c1)c1ccccc12 [Compound 2a-2]

inverse activation of liver X receptors (in words) (liver X receptors): can inversely activate liver X receptors
SMILES: CC(C)[C@@H]1N(C(=O)C(C)(C)C)CC[C@@]12C(=O)N(c1cccc(-c3ccc(CO)c(S(C)(=O)=O)c3)c1)c1ccccc12 [Compound 2d]

inverse activation of liver X receptors (in words) (liver X receptors): can inversely activate liver X receptors
SMILES: CC(C)[C@@H]1N(C(=O)C(F)(F)F)CC[C@@]12C(=O)N(c1cccc(-c3ccc(CO)c(S(C)(=O)=O)c3)c1)c1ccccc12 [Compound 2b]

activation of liver X receptors (in words) (liver X receptors): can activate liver X receptors
SMILES: CC(C)[C@@H]1N(C(=S)NC(C)(C)C)CC[C@@]12C(=O)N(c1cccc(-c3ccc(C(=O)N(C)C)c(Cl)c3)c1)c1ccccc12 [Compound 3c]

activation of liver X receptors (in words) (liver X receptors): can activate liver X receptors | EC50 (LXRα): 6920 nM | LXRα % Agonist effect (LXRα): 53%
SMILES: CC(C)[C@@H]1N(C(=O)OC(C)(C)C)CC[C@@]12C(=O)N(c1cccc(-c3ccc(C(=O)N(C)C)c(Cl)c3)c1)c1ccccc12 [Compound 3a]

inverse activation of liver X receptors (in words) (liver X receptors): can inversely activate liver X receptors
SMILES: CC(C)[C@@H]1N(C(=O)OC(C)(C)C)CC[C@@]12C(=O)N(c1cccc(-c3ccc(CO)c(S(C)(=O)=O)c3)c1)c1ccccc12 [Compound 2a]

Emax (LXRβ; HEK-293T, 20 h, inverse agonist activity, HEK293T reporter gene, read-out: LXRβ % Inverse agonist effect): 64% | IC50 (LXRβ; [5]): 10100 nM
SMILES: CC(C)[C@@H]1N(C(=O)CC(C)(C)C)CC[C@@]12C(=O)N(c1cccc(-c3ccc4ccn(C)c4c3)c1)c1ccccc12 [Compound 4c]
